#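 How tested: cells in 96-well plates exposed to compound for 48 hours at five concentrations. The concentration for 50% growth inhibition is given as GI50.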 Calls of active or inactive are those of the source. Rule as the data show it: active = GI50 up to about 1.1 µM and inactive = higher.
# What was measured:
# Test in all cases: DTP human tumour cell line panel, 48 h
# NCI-H226 = test system: NCI-H226
# HCC 2998 = test system: HCC 2998
# CAKI-1 = test system: CAKI-1
# SNB-78 = test system: SNB-78
# SNB-19 = test system: SNB-19
# HOP-18 = test system: HOP-18
# RXF 393 = test system: RXF 393
# MOLT-4 = test system: MOLT-4
# RPMI-8226 = test system: RPMI-8226
# DMS-114 = test system: DMS-114
# XF498 = test system: XF498
# K562 = test system: K562
# SR = test system: SR
# KM12 = test system: KM12
# TK-10 = test system: TK-10
# SF-295 = test system: SF-295
# HOP-92 = test system: HOP-92
# SK-MEL-2 = test system: SK-MEL-2
# LOX IMVI = test system: LOX IMVI
# UACC-257 = test system: UACC-257
# HOP-62 = test system: HOP-62
# EKVX = test system: EKVX
# IGROV-1 = test system: IGROV-1
# OVCAR-8 = test system: OVCAR-8
# 786-0 = test system: 786-0
# KM-20L2 = test system: KM-20L2
# NCI-H23 = test system: NCI-H23
# UACC-62 = test system: UACC-62
# SN12C = test system: SN12C
# DMS-273 = test system: DMS-273
# HT-29 = test system: HT-29
# OVCAR-3 = test system: OVCAR-3
# HCT-15 = test system: HCT-15
# SW-620 = test system: SW-620
# SNB-75 = test system: SNB-75
# A498 = test system: A498
# COLO 205 = test system: COLO 205
# HCT-116 = test system: HCT-116
# OVCAR-5 = test system: OVCAR-5
# OVCAR-4 = test system: OVCAR-4
# DLD-1 = test system: DLD-1
# SF-268 = test system: SF-268
# M19-MEL = test system: M19-MEL
# SK-MEL-28 = test system: SK-MEL-28
# SK-MEL-5 = test system: SK-MEL-5
# SF-539 = test system: SF-539
# A549 = test system: A549
# Malme-3M = test system: Malme-3M
# U-251 = test system: U-251
# NCI-H460 = test system: NCI-H460
# ACHN = test system: ACHN
# M14 = test system: M14
# UO-31 = test system: UO-31
# SK-OV-3 = test system: SK-OV-3
# HL-60 = test system: HL-60
# CCRF-CEM = test system: CCRF-CEM
# NCI-H522 = test system: NCI-H522
# LXFL 529 = test system: LXFL 529
smiles,measurement,setting,value
O=C(OC/C=C1C=C(OC(=O)c2ccccc2)/C(=N/N(C(=O)c2ccccc2)c2ccccc2)O\1)c1ccccc1,GI50,NCI-H226,0.512 µM (active)
same,GI50,HCC 2998,< 0.01 µM (active)
same,GI50,CAKI-1,< 0.01 µM (active)
same,GI50,SNB-78,26.3 µM (inactive)
same,GI50,SNB-19,< 0.01 µM (active)
same,GI50,HOP-18,< 0.01 µM (active)
same,GI50,RXF 393,2.12 µM (inactive)
same,GI50,MOLT-4,< 0.01 µM (active)
same,GI50,RPMI-8226,< 0.01 µM (active)
same,GI50,DMS-114,12.8 µM (inactive)
same,GI50,XF498,15.8 µM (inactive)
same,GI50,K562,< 0.01 µM (active)
same,GI50,SR,< 0.01 µM (active)
same,GI50,KM12,< 0.01 µM (active)
N#Cc1ccccc1NC(=O)c1ccccc1,GI50,TK-10,> 100 µM (inactive)
same,GI50,CAKI-1,> 100 µM (inactive)
same,GI50,SNB-78,> 100 µM (inactive)
same,GI50,SF-295,> 100 µM (inactive)
same,GI50,SNB-19,> 100 µM (inactive)
same,GI50,HOP-92,> 100 µM (inactive)
same,GI50,SK-MEL-2,> 100 µM (inactive)
same,GI50,LOX IMVI,> 100 µM (inactive)
same,GI50,UACC-257,> 100 µM (inactive)
same,GI50,HOP-62,> 100 µM (inactive)
same,GI50,EKVX,> 100 µM (inactive)
same,GI50,IGROV-1,> 100 µM (inactive)
same,GI50,OVCAR-8,> 100 µM (inactive)
same,GI50,786-0,> 100 µM (inactive)
same,GI50,KM-20L2,> 100 µM (inactive)
same,GI50,NCI-H23,> 100 µM (inactive)
same,GI50,UACC-62,> 100 µM (inactive)
same,GI50,SN12C,> 100 µM (inactive)
same,GI50,DMS-273,> 100 µM (inactive)
same,GI50,HT-29,> 100 µM (inactive)
same,GI50,HOP-18,> 100 µM (inactive)
same,GI50,OVCAR-3,> 100 µM (inactive)
same,GI50,HCT-15,> 100 µM
same,GI50,RXF 393,> 100 µM (inactive)
same,GI50,SW-620,> 100 µM (inactive)
same,GI50,SNB-75,68.5 µM (inactive)
same,GI50,A498,> 100 µM (inactive)
same,GI50,RPMI-8226,> 100 µM (inactive)
same,GI50,COLO 205,> 100 µM (inactive)
same,GI50,HCT-116,> 100 µM (inactive)
same,GI50,OVCAR-5,> 100 µM (inactive)
same,GI50,OVCAR-4,> 100 µM (inactive)
same,GI50,DLD-1,> 100 µM (inactive)
same,GI50,XF498,> 100 µM (inactive)
same,GI50,SF-268,> 100 µM (inactive)
same,GI50,M19-MEL,> 100 µM (inactive)
same,GI50,K562,> 100 µM (inactive)
same,GI50,SR,> 100 µM (inactive)
same,GI50,SK-MEL-28,> 100 µM (inactive)
same,GI50,SK-MEL-5,> 100 µM (inactive)
same,GI50,SF-539,> 100 µM (inactive)
same,GI50,A549,> 100 µM (inactive)
same,GI50,Malme-3M,> 100 µM (inactive)
same,GI50,U-251,> 100 µM (inactive)
same,GI50,NCI-H460,> 100 µM (inactive)
same,GI50,ACHN,> 100 µM (inactive)
same,GI50,KM12,> 100 µM (inactive)
Nc1nc(SCCC/C=C/B(O)O)nc2c1ncn2C1OC(COP(=O)(O)O)C(O)C1O (stereo not drawn),GI50,NCI-H226,> 203 µM (inactive)
same,GI50,M14,> 203 µM (inactive)
same,GI50,UO-31,> 203 µM (inactive)
same,GI50,TK-10,> 203 µM (inactive)
same,GI50,CAKI-1,> 203 µM (inactive)
same,GI50,SNB-78,> 203 µM (inactive)
same,GI50,SF-295,> 203 µM (inactive)
same,GI50,SNB-19,> 203 µM (inactive)
same,GI50,HOP-92,> 203 µM (inactive)
same,GI50,SK-MEL-2,> 203 µM (inactive)
same,GI50,LOX IMVI,> 203 µM (inactive)
same,GI50,UACC-257,> 203 µM (inactive)
same,GI50,SK-OV-3,> 203 µM (inactive)
same,GI50,HOP-62,> 203 µM (inactive)
same,GI50,IGROV-1,> 203 µM (inactive)
same,GI50,OVCAR-8,> 203 µM (inactive)
same,GI50,786-0,> 203 µM (inactive)
same,GI50,KM-20L2,> 203 µM (inactive)
same,GI50,NCI-H23,> 203 µM (inactive)
same,GI50,UACC-62,> 203 µM (inactive)
same,GI50,SN12C,> 203 µM (inactive)
same,GI50,DMS-273,> 203 µM (inactive)
same,GI50,HT-29,> 203 µM (inactive)
same,GI50,HL-60,> 203 µM (inactive)
same,GI50,HOP-18,> 203 µM (inactive)
same,GI50,OVCAR-3,> 203 µM (inactive)
same,GI50,HCT-15,> 203 µM
same,GI50,SW-620,> 203 µM (inactive)
same,GI50,MOLT-4,> 203 µM (inactive)
same,GI50,SNB-75,> 203 µM (inactive)
same,GI50,A498,> 203 µM (inactive)
same,GI50,RPMI-8226,> 203 µM (inactive)
same,GI50,COLO 205,> 203 µM (inactive)
same,GI50,HCT-116,> 203 µM (inactive)
same,GI50,OVCAR-5,> 203 µM (inactive)
same,GI50,OVCAR-4,> 203 µM (inactive)
same,GI50,DMS-114,> 203 µM (inactive)
same,GI50,DLD-1,> 203 µM (inactive)
same,GI50,XF498,> 203 µM (inactive)
same,GI50,SF-268,> 203 µM (inactive)
same,GI50,M19-MEL,> 203 µM (inactive)
same,GI50,K562,> 203 µM (inactive)
same,GI50,SR,> 203 µM (inactive)
same,GI50,SK-MEL-28,> 203 µM (inactive)
same,GI50,SK-MEL-5,> 203 µM (inactive)
same,GI50,SF-539,> 203 µM (inactive)
same,GI50,A549,> 203 µM (inactive)
same,GI50,Malme-3M,> 203 µM (inactive)
same,GI50,U-251,> 203 µM (inactive)
same,GI50,CCRF-CEM,> 203 µM (inactive)
same,GI50,NCI-H460,> 203 µM (inactive)
same,GI50,ACHN,> 203 µM (inactive)
same,GI50,NCI-H522,115 µM (inactive)
same,GI50,KM12,> 203 µM (inactive)
COc1ccccc1NC(=O)/C(=C/c1ccccc1)C(C)=O,GI50,NCI-H226,37.1 µM (inactive)
same,GI50,M14,25.2 µM (inactive)
same,GI50,HCC 2998,36.1 µM (inactive)
same,GI50,UO-31,56.8 µM (inactive)
same,GI50,TK-10,44.9 µM (inactive)
same,GI50,LXFL 529,43.9 µM (inactive)
same,GI50,CAKI-1,35.1 µM (inactive)
same,GI50,SNB-78,10.8 µM (inactive)
same,GI50,SF-295,27.5 µM (inactive)
same,GI50,SNB-19,47.3 µM (inactive)
same,GI50,HOP-92,45.3 µM (inactive)
same,GI50,SK-MEL-2,38.5 µM (inactive)
same,GI50,LOX IMVI,37.2 µM (inactive)
same,GI50,UACC-257,47 µM (inactive)
same,GI50,SK-OV-3,44.5 µM (inactive)
same,GI50,HOP-62,59.4 µM (inactive)
same,GI50,EKVX,45.4 µM (inactive)
same,GI50,IGROV-1,53 µM (inactive)
same,GI50,OVCAR-8,37.4 µM (inactive)
same,GI50,786-0,35.1 µM (inactive)
same,GI50,NCI-H23,19.1 µM (inactive)
same,GI50,UACC-62,32.9 µM (inactive)
same,GI50,SN12C,42.2 µM (inactive)
same,GI50,HT-29,32.3 µM (inactive)
same,GI50,HL-60,23.6 µM (inactive)
same,GI50,HOP-18,> 100 µM (inactive)
same,GI50,OVCAR-3,38.6 µM (inactive)
same,GI50,HCT-15,37.2 µM
same,GI50,RXF 393,20.7 µM (inactive)
same,GI50,SW-620,36.9 µM (inactive)
same,GI50,MOLT-4,30.1 µM (inactive)
same,GI50,RPMI-8226,35.5 µM (inactive)
same,GI50,HCT-116,43.3 µM (inactive)
same,GI50,OVCAR-5,> 100 µM (inactive)
same,GI50,OVCAR-4,64.4 µM (inactive)
same,GI50,DMS-114,40.3 µM (inactive)
same,GI50,DLD-1,38.8 µM (inactive)
same,GI50,XF498,19.4 µM (inactive)
same,GI50,SF-268,38.4 µM (inactive)
same,GI50,M19-MEL,65.2 µM (inactive)
same,GI50,K562,27.6 µM (inactive)
same,GI50,SR,36.6 µM (inactive)
same,GI50,SK-MEL-28,62.4 µM (inactive)
same,GI50,SK-MEL-5,22.7 µM (inactive)
same,GI50,SF-539,23.6 µM (inactive)
same,GI50,A549,38 µM (inactive)
same,GI50,Malme-3M,27.7 µM (inactive)
same,GI50,U-251,4.47 µM (inactive)
same,GI50,CCRF-CEM,29.6 µM (inactive)
same,GI50,NCI-H460,37.2 µM (inactive)
same,GI50,ACHN,41.5 µM (inactive)
same,GI50,NCI-H522,25.5 µM (inactive)
same,GI50,KM12,36.9 µM (inactive)

# — ChEMBL document CHEMBL1201862, “PubChem BioAssay data set” (2004)
